Test system: CD1d-mediated activation of NKT cells
Test: CD1d-mediated activation of a panel of NKT cell hybridomas by pretreated LCD1dwt cells, IL-2 ELISA
Assay type: cell-based, mouse
Details: LCD1dwt cells treated 4 h; DN32.D3, N37-1A12, N38-3C3
Protocol: FIG. 2. […] LCD1dwt cells were treated with 1 ml media containing 5% FBS, FBS, human AB serum or serum from the indicated patients for 3-4 h, washed extensively and then co-cultured with N37-1A12 and N38-3C3 NKT cell hybridomas. IL-2 was measured by standard cytokine ELISA, and data is shown as percent control, normalized to cells treated with culture media as 100% or the maximum level of stimulation.
FIG. 4. Treatment with ovarian cancer associated ascites has no effect on HLA-A2 mediated antigen presentation. […] IFN-γ released was measured by ELISA. […] NKT cell recognition of CD1d was assessed by measuring IL-2 production in the supernatants by ELISA.
FIG. 5. […] NKT cell recognition of CD1d1 was assessed by measuring IL-2 production in the supernatants by ELISA. […]
FIG. 6. […] IL-2 was measured, as an indication of NKT cell activation, by standard cytokine ELISA. […] NKT cell recognition of CD was assessed by measuring IL-2 production in the supernatants by ELISA. […]
FIG. 7. […] (A) IL-2 was measured, or GM-CSF (B) as an indication of NKT cell activation, by standard cytokine ELISA. […] The extracted lipids were analyzed by thin-layer chromatography (TLC) (HPTLC Silica Gel 60; Merck, Darmstadt, Germany) with chloroform-methanol-0.25% aqueous KCl (60:35:8) as running solvent. Gangliosides were detected with a resorcinol—HCl Cu2+ reagent. […]

## GT1b
  CD1d-mediated activation of NKT cells, increasing doses of ganglioside: did not inhibit
